According to ChEMBL document CHEMBL3046015, “Structure-dependent phytotoxicity of catechins and other flavonoids: flavonoid conversions by cell-free protein extracts of Centaurea maculosa (spotted knapweed) roots” (J Agric Food Chem, 2003):
Calls of active or inactive are those of the source. The rule behind the calls is not given here.

Assays:
[1] = tested on: Triticum aestivum; assay: Phytotoxicity in Triticum aestivum (wheat) assessed as inhibition of seed germination at 250 ug/mL measured on day 14 relative to untreated control; format: organism-based; details: in vivo
[2] = tested on: Linaria genistifolia subsp. dalmatica; assay: Phytotoxicity in Linaria genistifolia subsp. dalmatica assessed as inhibition of seed germination at 250 ug/mL measured on day 14 relative to untreated control; format: functional, organism-based
[3] = tested on: Centaurea diffusa; assay: Phytotoxicity in Centaurea diffusa assessed as inhibition of seed germination at 250 ug/mL measured on day 14 relative to untreated control; format: functional, organism-based
[4] = tested on: Bassia scoparia; assay: Phytotoxicity in Bassia scoparia assessed as inhibition of seed germination at 250 ug/mL measured on day 14 relative to untreated control; format: functional, organism-based
[5] = tested on: Centaurea maculosa; assay: Phytotoxicity in Centaurea maculosa assessed as inhibition of seed germination at 250 ug/mL measured on day 14 relative to untreated control; format: functional, organism-based
[6] = tested on: Bassia scoparia; assay: Phytotoxicity in Bassia scoparia assessed as increase in mortality at 250 ug/mL measured on day 14 relative to untreated control; format: functional, organism-based
[7] = tested on: Linaria genistifolia subsp. dalmatica; assay: Phytotoxicity in Linaria genistifolia subsp. dalmatica assessed as increase in mortality at 250 ug/mL measured on day 14 relative to untreated control; format: functional, organism-based
[8] = tested on: Centaurea diffusa; assay: Phytotoxicity in Centaurea diffusa assessed as increase in mortality at 250 ug/mL measured on day 14 relative to untreated control; format: functional, organism-based
[9] = tested on: Centaurea maculosa; assay: Phytotoxicity in Centaurea maculosa assessed as increase in mortality at 250 ug/mL measured on day 14 relative to untreated control; format: functional, organism-based
[10] = tested on: Solanum lycopersicum; assay: Phytotoxicity in Solanum lycopersicum (tomato) assessed as increase in mortality at 250 ug/mL measured on day 14 relative to untreated control; format: organism-based; details: in vivo
[11] = tested on: Triticum aestivum; assay: Phytotoxicity in Triticum aestivum (wheat) assessed as increase in mortality at 250 ug/mL measured on day 14 relative to untreated control; format: functional, organism-based
[12] = tested on: Arabidopsis thaliana; assay: Phytotoxicity in Arabidopsis thaliana assessed as increase in mortality at 250 ug/mL measured on day 14 relative to untreated control; format: organism-based; details: in vivo
[13] = tested on: Bassia scoparia; assay: Phytotoxicity in Bassia scoparia assessed as inhibition of shoot differentiation at 250 ug/mL measured on day 14 relative to untreated control; format: functional, organism-based
[14] = tested on: Linaria genistifolia subsp. dalmatica; assay: Phytotoxicity in Linaria genistifolia subsp. dalmatica assessed as inhibition of shoot differentiation at 250 ug/mL measured on day 14 relative to untreated control; format: functional, organism-based
[15] = tested on: Linaria genistifolia subsp. dalmatica; assay: Phytotoxicity in Linaria genistifolia subsp. dalmatica assessed as inhibition of root differentiation at 250 ug/mL measured on day 14 relative to untreated control; format: functional, organism-based
[16] = tested on: Centaurea diffusa; assay: Phytotoxicity in Centaurea diffusa assessed as inhibition of root differentiation at 250 ug/mL measured on day 14 relative to untreated control; format: functional, organism-based
[17] = tested on: Centaurea diffusa; assay: Phytotoxicity in Centaurea diffusa assessed as inhibition of shoot differentiation at 250 ug/mL measured on day 14 relative to untreated control; format: functional, organism-based
[18] = tested on: Bassia scoparia; assay: Phytotoxicity in Bassia scoparia assessed as inhibition of root differentiation at 250 ug/mL measured on day 14 relative to untreated control; format: functional, organism-based
[19] = tested on: Centaurea maculosa; assay: Phytotoxicity in Centaurea maculosa assessed as inhibition of root differentiation at 250 ug/mL measured on day 14 relative to untreated control; format: functional, organism-based
[20] = tested on: Centaurea maculosa; assay: Phytotoxicity in Centaurea maculosa assessed as inhibition of shoot differentiation at 250 ug/mL measured on day 14 relative to untreated control; format: functional, organism-based
[21] = tested on: Linaria genistifolia subsp. dalmatica; assay: Phytotoxicity in Linaria genistifolia subsp. dalmatica assessed as inhibition of seed germination at 50 ug/mL measured on day 14 relative to untreated control; format: functional, organism-based
[22] = tested on: Centaurea maculosa; assay: Phytotoxicity in Centaurea maculosa assessed as inhibition of seed germination at 50 ug/mL measured on day 14 relative to untreated control; format: functional, organism-based
[23] = tested on: Bassia scoparia; assay: Phytotoxicity in Bassia scoparia assessed as inhibition of seed germination at 50 ug/mL measured on day 14 relative to untreated control; format: functional, organism-based
[24] = tested on: Centaurea diffusa; assay: Phytotoxicity in Centaurea diffusa assessed as inhibition of seed germination at 50 ug/mL measured on day 14 relative to untreated control; format: functional, organism-based
[25] = tested on: Triticum aestivum; assay: Phytotoxicity in Triticum aestivum (wheat) assessed as increase in mortality at 50 ug/mL measured on day 14 relative to untreated control; format: functional, organism-based
[26] = tested on: Solanum lycopersicum; assay: Phytotoxicity in Solanum lycopersicum (tomato) assessed as increase in mortality at 50 ug/mL measured on day 14 relative to untreated control; format: organism-based; details: in vivo
[27] = tested on: Linaria genistifolia subsp. dalmatica; assay: Phytotoxicity in Linaria genistifolia subsp. dalmatica assessed as increase in mortality at 50 ug/mL measured on day 14 relative to untreated control; format: functional, organism-based
[28] = tested on: Bassia scoparia; assay: Phytotoxicity in Bassia scoparia assessed as increase in mortality at 50 ug/mL measured on day 14 relative to untreated control; format: functional, organism-based
[29] = tested on: Centaurea diffusa; assay: Phytotoxicity in Centaurea diffusa assessed as increase in mortality at 50 ug/mL measured on day 14 relative to untreated control; format: functional, organism-based
[30] = tested on: Centaurea maculosa; assay: Phytotoxicity in Centaurea maculosa assessed as increase in mortality at 50 ug/mL measured on day 14 relative to untreated control; format: functional, organism-based
[31] = tested on: Triticum aestivum; assay: Phytotoxicity in Triticum aestivum (wheat) assessed as inhibition of seed germination at 50 ug/mL measured on day 14 relative to untreated control; format: functional, organism-based

SMILES	inhibition (INH) [1]	inhibition [2]	inhibition [3]	inhibition [4]	inhibition [5]	inhibition [13]	inhibition [14]	inhibition [15]	inhibition [16]	inhibition [17]	inhibition [18]	inhibition [19]	inhibition [20]	also measured
O=C1c2c(O)cc(O)cc2OC(c2ccc(O)c(O)c2)C1O (racemic) [TAXIFOLIN]	Toxic	Active	Active	Active	inactive									inhibition [6]: Active; inhibition [7]: Active; inhibition [8]: Active; inhibition [9]: inactive; inhibition (INH) [10]: Toxic; inhibition [11]: Active; inhibition (INH) [12]: Toxic
Oc1cc(O)c2c(c1)O[C@@H](c1ccc(O)c(O)c1)[C@@H](O)C2 [(+)-EPICATECHIN]	Toxic	Active	Active	Active	Active	Active	Active	Active	Active	Active	Active	Active	Active	
Oc1cc(O)c2c(c1)O[C@@H](c1ccc(O)c(O)c1)[C@H](O)C2 [(-)-CATECHIN]														inhibition [21]: Active; inhibition [22]: inactive; inhibition [23]: Active; inhibition [24]: Active; inhibition [25]: Active; inhibition (INH) [26]: Toxic; inhibition [27]: Active; inhibition [28]: Active; inhibition [29]: Active; inhibition [30]: inactive; inhibition [31]: Active
Oc1cc(O)c2c(c1)O[C@H](c1ccc(O)c(O)c1)[C@H](O)C2 [(-)-EPICATECHIN]	Non-toxic	inactive	inactive	inactive	inactive	inactive	inactive	inactive	inactive	inactive	inactive	inactive	inactive	
O=c1c(O)c(-c2ccc(O)cc2)oc2cc(O)cc(O)c12 [KAEMPFEROL]	Toxic	Active	Active	Active	inactive									inhibition [6]: Active; inhibition [7]: Active; inhibition [8]: Active; inhibition [9]: inactive; inhibition (INH) [10]: Toxic; inhibition [11]: Active; inhibition (INH) [12]: Toxic
O=C1C[C@@H](c2ccc(O)cc2)Oc2cc(O)cc(O)c21 [NARINGENIN]	Non-toxic	inactive	inactive	inactive	inactive	inactive	inactive	inactive	inactive	inactive	inactive	inactive	inactive	
O=c1c(O)c(-c2ccc(O)c(O)c2)oc2cc(O)cc(O)c12 [QUERCETIN]	Non-toxic	inactive	inactive	inactive	inactive	inactive	inactive	inactive	inactive	inactive	inactive	inactive	inactive	
